This is an account of results in patent US11111259B2, “Acylsulfonamide derivatives for treating senescence-associated diseases and disorders” (Unity Biotechnology, Inc., priority 2015, dated 2021).

SMILES strings stand for the structures.

The target of one assay is T1, BCL-w (Homo sapiens, UniProt Q92843).
T1 sequence (Q92843 1-193): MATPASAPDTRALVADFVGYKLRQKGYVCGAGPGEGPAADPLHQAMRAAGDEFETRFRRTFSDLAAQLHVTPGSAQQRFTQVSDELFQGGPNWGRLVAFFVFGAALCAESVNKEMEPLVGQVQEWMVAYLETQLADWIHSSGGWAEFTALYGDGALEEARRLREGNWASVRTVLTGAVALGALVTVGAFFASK
Put plainly: BCL-binding assay (AlphaLISA competition, BIM peptide). The following applies: 6xHis BCL-w with biotinylated BIM peptide, 24 hr incubation. The method, then:
(§1) Compounds were prepared as 400× DMSO stock solutions in a 1:4 dilution series then diluted […] in assay buffer (25 mM HEPES pH 7.5, 100 mM NaCl, 0.1% BSA, 0.005% Tween) immediately before use. Aliquots of 400 nM 6xHis-tagged BCL-xL, BCL-2, and BCL-w were thawed on ice and diluted to 0.4 (BCL-XL) or 0.8 (BCL-W and 2) nM in assay buffer. Aliquots of biotinylated BIM and BAD peptides were diluted in assay buffer to 120 and 60 nM respectively. Ten microliters of biotinylated peptide were added to wells of a 96-well PCR plate, followed by ten microliters of inhibitor, then ten microliters of BCL protein, BCL-XL with BAD and BCL-W/2 with BIM. The plates were sealed and incubated at room temperature. After 24 hr, 0.16 μg Anti-His conjugated AlphaLISA acceptor beads were added in 5 μL assay buffer. After one hour at room temperature, 0.16 μg AlphaScreen streptavidin donor beads were added in 5 μL assay buffer and plates were incubated an additional 30 min in the dark. Two 17 μL aliquots of each reaction were plated in a Perkin Elmer 384-well proxiplate, and plates were scanned for using a Perkin Elmer Enspire plate reader. Kd values were calculated in Prism Graph Pad using a one site competitive binding model and previously determined Kd values for each protein peptide pair. […]

A further assay addresses BCL-2 (Homo sapiens, UniProt P10415). The assay is described as above. The following applies: 6xHis BCL-2 with biotinylated BIM peptide, 24 hr incubation. The method, then: as §1
Assay [1] deals with IMR-90 SnC (irradiated senescent IMR90 cells). Put plainly: Senolysis assay (CellTiter-Glo viability). In kind it is cell-based, human. The conditions noted are these: for EC50: Homo sapiens, IMR-90, light or radiation study, 72 h, X-ray irradiated senescent IMR90 cells, viability three days after compound addition; for SI (ratio of EC50 of non-senescent cells to EC50 of senescent cells): IMR90 non-senescent vs senescent cells. The method, then:
IMR90 cells are maintained in DMEM supplemented with 10% FBS. To prepare a senescent population, cells were trypsinized, diluted to 50,000 per mL, and irradiated with 10-15 Gy of X-ray irradiation. Irradiated cells were plated at 5000 cells per well in one third of a 96-well plate and maintained for two weeks prior to the assay. Four days prior to the assay, non-senescent IMR90s were plated at 2500 per well in the second third of the plate. One day prior to the assay, 2500 non-senescent cells were plated in the final third of the plate. Compounds were prepared as a 200×DMSO dilution series then diluted to 1× in media immediately before adding to cells. Three days after compound addition, cell viability was measured using CellTiter-Glo reagent from Promega. Viability was calculated relative to a DMSO control and EC50 values are calculated in Prism GraphPad. […] The selectivity (SI) of the compounds described herein is a ratio of the EC50 of non-senescent cells to the EC50 of senescent cells. The SI of the compounds described herein is 10 or above for “A” selectivity, between 2 and 10 for “B” selectivity or 2 or less for “C” selectivity.
For orientation: ATP-based viability assays read luminescence as a measure of living cells.

Another assay deals with BCL-xL (Homo sapiens, UniProt Q07817). Kind of assay: BCL-binding assay (AlphaLISA competition, BAD peptide). The conditions noted are these: 6xHis BCL-xL with biotinylated BAD peptide, 24 hr incubation. How it is done:
as §1

Sequence of BCL-2 (P10415 whole entry, species assumed): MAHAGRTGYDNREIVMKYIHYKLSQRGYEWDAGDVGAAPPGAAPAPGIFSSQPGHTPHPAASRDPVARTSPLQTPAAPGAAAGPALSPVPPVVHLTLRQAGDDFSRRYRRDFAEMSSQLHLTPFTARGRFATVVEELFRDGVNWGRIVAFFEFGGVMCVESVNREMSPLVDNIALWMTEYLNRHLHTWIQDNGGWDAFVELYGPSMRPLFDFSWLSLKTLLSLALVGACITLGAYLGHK
Sequence of BCL-xL (Q07817 whole entry, species assumed): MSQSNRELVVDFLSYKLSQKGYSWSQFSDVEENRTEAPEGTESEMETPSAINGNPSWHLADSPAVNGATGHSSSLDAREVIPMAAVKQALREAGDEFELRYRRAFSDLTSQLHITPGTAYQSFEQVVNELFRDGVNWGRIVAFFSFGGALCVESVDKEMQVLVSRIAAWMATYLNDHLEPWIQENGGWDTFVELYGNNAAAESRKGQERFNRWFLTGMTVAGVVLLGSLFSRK

As a reminder, the Kd is the equilibrium constant for the complex coming apart. Read a low Kd as higher affinity. Broadly, the EC50 is the concentration at which the effect is half-maximal. Turning to `CCOP(=O)(CN1CCN(CC[C@H](CSc2ccccc2)Nc2ccc(S(=O)(=O)NC(=O)c3ccc(N4CCN(CC5=C(c6ccc(Cl)cc6)CCC(C)(C)C5)CC4)cc3)cc2S(=O)(=O)C(F)(F)F)CC1)OCC` [Compound 6], the Kd is 1 to 10 nM on BCL-w, less than 1 nM on BCL-2 and less than 1 nM on BCL-xL. For the same compound, in assay [1], the EC50 is less than 1000 nM. Moreover, the “SI (ratio of EC50 of non-senescent cells to EC50 of senescent cells)” value in assay [1] is “A (10 or above)”.
As for `CC1(C)CCC(c2ccc(Cl)cc2)=C(CN2CCN(c3ccc(C(=O)NS(=O)(=O)c4ccc(N[C@H](CCN5CCN(CP(=O)(O)O)CC5)CSc5ccccc5)c(S(=O)(=O)C(F)(F)F)c4)cc3)CC2)C1` [Compound 7], the Kd at BCL-w is 10 to 50 nM; on BCL-2, less than 1 nM; at BCL-xL, less than 1 nM. Besides, the EC50 in assay [1] was more than 10000 nM. For the same compound, in assay [1], the “SI (ratio of EC50 of non-senescent cells to EC50 of senescent cells)” value is “B (between 2 and 10)”.
As to `CCOP(=O)(CCN1CCN(CC[C@H](CSc2ccccc2)Nc2ccc(S(=O)(=O)NC(=O)c3ccc(N4CCN(CC5=C(c6ccc(Cl)cc6)CCC(C)(C)C5)CC4)cc3)cc2S(=O)(=O)C(F)(F)F)CC1)OCC` [Compound 9], the figures for the Kd on BCL-w, at BCL-2 and at BCL-xL were 1 to 10 nM, less than 1 nM and less than 1 nM, respectively. Besides, the EC50 in assay [1] is less than 1000 nM. For the same compound, in assay [1], the “SI (ratio of EC50 of non-senescent cells to EC50 of senescent cells)” value is “A (10 or above)”.
Turning to `CCOP(=O)(CCN(C)CC[C@H](CSc1ccccc1)Nc1ccc(S(=O)(=O)NC(=O)c2ccc(N3CCN(CC4=C(c5ccc(Cl)cc5)CCC(C)(C)C4)CC3)cc2)cc1S(=O)(=O)C(F)(F)F)OCC` [Compound 10], the Kd at BCL-w was 1 to 10 nM; at BCL-2, less than 1 nM; at BCL-xL, less than 1 nM. The compound also returned an EC50 in assay [1] of 1000 to 10000 nM. Also, the “SI (ratio of EC50 of non-senescent cells to EC50 of senescent cells)” value in assay [1] is “A (10 or above)”.
With `CCOP(=O)(O)CCN(C)CC[C@H](CSc1ccccc1)Nc1ccc(S(=O)(=O)NC(=O)c2ccc(N3CCN(CC4=C(c5ccc(Cl)cc5)CCC(C)(C)C4)CC3)cc2)cc1S(=O)(=O)C(F)(F)F` [Compound 11], the Kd at BCL-w is 1 to 10 nM; at BCL-2 it was less than 1 nM; at BCL-xL, less than 1 nM. Moreover, in assay [1], the concentration giving a half-maximal response (EC50) is more than 10000 nM. The “SI (ratio of EC50 of non-senescent cells to EC50 of senescent cells)” value in assay [1] is given as “C (2 or less)”.
For the compound `CN(CC[C@H](CSc1ccccc1)Nc1ccc(S(=O)(=O)NC(=O)c2ccc(N3CCN(CC4=C(c5ccc(Cl)cc5)CCC(C)(C)C4)CC3)cc2)cc1S(=O)(=O)C(F)(F)F)CCP(=O)(O)O` [Compound 12], the Kd on BCL-w is 10 to 50 nM; on BCL-2 it was less than 1 nM; on BCL-xL, less than 1 nM. Moreover, the EC50 in assay [1] is more than 10000 nM.
`CC1(C)CCC(c2ccc(Cl)cc2)=C(CN2CCN(c3ccc(C(=O)NS(=O)(=O)c4ccc(N[C@H](CCN5CCN(CCP(=O)(O)O)CC5)CSc5ccccc5)c(S(=O)(=O)C(F)(F)F)c4)cc3)CC2)C1` [Compound 13]: the results for the dissociation constant Kd at BCL-w, on BCL-2 and at BCL-xL were 1 to 10 nM, less than 1 nM and less than 1 nM, respectively. In assay [1], this compound displayed an EC50 of more than 10000 nM.
For the compound `CCOP(=O)(O)CCN1CCN(CC[C@H](CSc2ccccc2)Nc2ccc(S(=O)(=O)NC(=O)c3ccc(N4CCN(CC5=C(c6ccc(Cl)cc6)CCC(C)(C)C5)CC4)cc3)cc2S(=O)(=O)C(F)(F)F)CC1` [Compound 14], the equilibrium dissociation constant (Kd) on BCL-w was 1 to 10 nM; at BCL-2, less than 1 nM; at BCL-xL, less than 1 nM. In assay [1], this compound gave an EC50 of more than 10000 nM.
On to `CC(C)OP(=O)(CN1CCN(CC[C@H](CSc2ccccc2)Nc2ccc(S(=O)(=O)NC(=O)c3ccc(N4CCN(CC5=C(c6ccc(Cl)cc6)CCC(C)(C)C5)CC4)cc3)cc2S(=O)(=O)C(F)(F)F)CC1)OC(C)C` [Compound 15], for which the dissociation constant (Kd) at BCL-w was 10 to 50 nM; at BCL-2, less than 1 nM; on BCL-xL it was less than 1 nM. The same compound showed an EC50 in assay [1] of 1000 to 10000 nM. Besides, the “SI (ratio of EC50 of non-senescent cells to EC50 of senescent cells)” value in assay [1] is “B (between 2 and 10)”.
Take `COP(=O)(CN1CCN(CC[C@H](CSc2ccccc2)Nc2ccc(S(=O)(=O)NC(=O)c3ccc(N4CCN(CC5=C(c6ccc(Cl)cc6)CCC(C)(C)C5)CC4)cc3)cc2S(=O)(=O)C(F)(F)F)CC1)OC` [Compound 16]: the figures for the Kd on BCL-w, on BCL-2 and on BCL-xL were 1 to 10 nM, less than 1 nM and less than 1 nM, respectively. Further, the EC50 in assay [1] is less than 1000 nM. For the same compound, in assay [1], the “SI (ratio of EC50 of non-senescent cells to EC50 of senescent cells)” value is “A (10 or above)”.
`CCOP(=O)(CCCN1CCN(CC[C@H](CSc2ccccc2)Nc2ccc(S(=O)(=O)NC(=O)c3ccc(N4CCN(CC5=C(c6ccc(Cl)cc6)CCC(C)(C)C5)CC4)cc3)cc2S(=O)(=O)C(F)(F)F)CC1)OCC` [Compound 23]: the dissociation constant Kd on BCL-w was 1 to 10 nM; on BCL-2, less than 1 nM; on BCL-xL, less than 1 nM. This compound also showed an EC50 in assay [1] of less than 1000 nM. Moreover, the “SI (ratio of EC50 of non-senescent cells to EC50 of senescent cells)” value in assay [1] was “A (10 or above)”.
With `COP(=O)(CCCN1CCN(CC[C@H](CSc2ccccc2)Nc2ccc(S(=O)(=O)NC(=O)c3ccc(N4CCN(CC5=C(c6ccc(Cl)cc6)CCC(C)(C)C5)CC4)cc3)cc2S(=O)(=O)C(F)(F)F)CC1)OC` [Compound 24], the Kd was 1 to 10 nM at BCL-w, less than 1 nM on BCL-2 and less than 1 nM at BCL-xL. Besides, the EC50 in assay [1] is less than 1000 nM. Besides, the “SI (ratio of EC50 of non-senescent cells to EC50 of senescent cells)” value in assay [1] is recorded as “A (10 or above)”.
Turning to `CC1(C)CCC(c2ccc(Cl)cc2)=C(CN2CCN(c3ccc(C(=O)NS(=O)(=O)c4ccc(N[C@H](CCN5CCN(CCCP(=O)(Oc6ccccc6)Oc6ccccc6)CC5)CSc5ccccc5)c(S(=O)(=O)C(F)(F)F)c4)cc3)CC2)C1` [Compound 25], the equilibrium dissociation constant (Kd) at BCL-w was more than 50 nM; on BCL-2 it was less than 1 nM; on BCL-xL it was 1 to 10 nM. The compound also came in with a concentration for a half-maximal effect (EC50) in assay [1] of more than 10000 nM. In assay [1], the “SI (ratio of EC50 of non-senescent cells to EC50 of senescent cells)” value was “C (2 or less)”.
For the compound `CCOP(=O)(CN1CCN(CC[C@H](CSc2ccccc2)Nc2ccc(S(=O)(=O)NC(=O)c3ccc(N4CCN(CC5=C(c6ccc(Cl)cc6)CCC(C)(C)C5)CC4)cc3)cc2S(=O)(=O)C(F)(F)F)CC1)OC(C)(C)C` (some centres unmarked) [Compound 26], the equilibrium dissociation constant (Kd) at BCL-w is more than 50 nM; at BCL-2 it was more than 50 nM; on BCL-xL, 10 to 50 nM. Also, the 50% effective concentration (EC50) in assay [1] is more than 10000 nM.
`CC(C)OP(=O)(CCCN1CCN(CC[C@H](CSc2ccccc2)Nc2ccc(S(=O)(=O)NC(=O)c3ccc(N4CCN(CC5=C(c6ccc(Cl)cc6)CCC(C)(C)C5)CC4)cc3)cc2S(=O)(=O)C(F)(F)F)CC1)OC(C)C` [Compound 27]: the dissociation constant (Kd) at BCL-w is 1 to 10 nM; on BCL-2 it was less than 1 nM; at BCL-xL it was less than 1 nM. The half-maximal effective concentration (EC50) in assay [1] is more than 10000 nM. Further, the “SI (ratio of EC50 of non-senescent cells to EC50 of senescent cells)” value in assay [1] is given as “C (2 or less)”.
For the compound `CCOP(=O)(O)CC1CCN(CC[C@H](CSc2ccccc2)Nc2ccc(S(=O)(=O)NC(=O)c3ccc(N4CCN(CC5=C(c6ccc(Cl)cc6)CCC(C)(C)C5)CC4)cc3)cc2S(=O)(=O)C(F)(F)F)CC1` [Compound 49, Ethylhydrogen((1-((R)-3-((4-(N-(4-(4-((4′-chloro-4,4-dimethyl-3,4,5,6-tetrahydro-[1,1′-biphenyl]-2-yl)methyl)piperazin-1-yl)benzoyl)sulfamoyl)-2-((trifluoromethyl)sulfonyl)phenyl)amino)-4-(phenylthio)butyl)piperidin-4-yl)methyl)phosphonate], the Kd on BCL-w was 1 to 10 nM; at BCL-2 it was less than 1 nM; on BCL-xL, less than 1 nM.
